Test results from patent publication US5279956A, “Activated protein C polypeptides and anti-peptide antibodies, diagnostic methods and systems for inhibiting activated protein C” (The Scripps Research Institute, priority 1991, dated 1994).
No end group written: not given here.

Target: T1, APC (Homo sapiens, UniProt P04070)
T1 construct: begins at amino acid residue position 158 and ends at 419; The light chain is 155 amino acid residues in length; tissue Factor IX concentrate from Immuno AG, Vienna; thrombin from Enzyme Research Laboratories
T1 sequence (P04070 212-461): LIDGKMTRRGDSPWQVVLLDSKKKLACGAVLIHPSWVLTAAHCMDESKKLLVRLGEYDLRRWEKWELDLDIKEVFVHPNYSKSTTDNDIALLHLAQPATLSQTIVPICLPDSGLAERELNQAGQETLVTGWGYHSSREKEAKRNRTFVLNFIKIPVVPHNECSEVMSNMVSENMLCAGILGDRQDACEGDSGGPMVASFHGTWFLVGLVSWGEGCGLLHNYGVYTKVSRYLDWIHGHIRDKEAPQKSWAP
T1 sequence (P04070 43-197): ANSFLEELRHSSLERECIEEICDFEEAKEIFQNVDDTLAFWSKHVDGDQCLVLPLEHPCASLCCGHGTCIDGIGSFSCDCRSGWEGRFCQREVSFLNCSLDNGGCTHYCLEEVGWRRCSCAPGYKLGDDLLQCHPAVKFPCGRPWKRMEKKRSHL
Experiment: Xa-1-stage coagulation assay of APC anticoagulant activity
Assay type: biochemical
Description: For testing the inhibition of the synthetic peptides on APC activity described above, Xa-1-stage coagulation assays were also performed as described. See Seegers et al., Thrombosis Res., 13:233-243 (1978); Marlar et al., supra; and Walker et al., J. Biol. Chem. 265:1484-1489 (1990). […] The resulting admixtures were maintained for seven minutes at 37° C. Separate aliquots of peptides maintained under the same conditions in the absence of APC served as controls for the inhibitory effect of synthetic peptides on APC anticoagulant activity. After the maintenance period, 100 μl of NHP and 100 μl of 200 μg/ml of rabbit brain cephalin (Sigma) were admixed into each peptide admixture and maintained for 200 seconds at 37° C. to form pre-coagulation admixtures. In some experiments, Factor VIII deficient plasma (George King Bio-Medical, Inc.) was used in the place of NHP to determine the effect of Factor VIII on the assay system. Coagulation was then initiated by the admixture of 100 μl of 0.62 nM human activated Factor X (Xa) (Enzyme Research Laboratories, Southbend, Ind.) in TBS-BSA containing 30 mM CaCl2 prewarmed to 37° C. to each of the pre-coagulation admixtures.
The time for clot formation was measured by an Electra 700 Automatic Coagulation Timer (Medical Laboratory Automation, Inc., Mount Vernon, N.Y.). Each peptide's effect was determined in duplicate. The results of the inhibition of APC anticoagulant activity by synthetic peptides as measured in Xa-1-stage coagulation assays are described above and are presented as the mean values obtained with […].
Additional assays were performed to compare the specificity of the inhibitory effect of peptide-(390-404) on APC anticoagulant activity. Both APTT and Xa-1-stage assays were performed with peptide-(390-404) and with the same peptide synthesized in the reverse order, peptide-(404-390), at concentrations of the peptides ranging from 0 μM to 40 μM. In APTT assays performed as described above in the presence of NHP, APC was used at a concentration of 2.5 nM. […]

Row | Substance | effect on APC in Xa1-stage assay (up to 100 μM) | IC50 [µM] | IC90 [µM]
1 | KRNRTFVLNFIKIPV-NH2 [peptide-(311-325), KRNRTFVLNFIKIPV] | no effect | – | –
2 | YGVYTKVSRYLDWIH-NH2 [peptide-(390-404), YGVYTKVSRYLDWIH] | – | 5 | 40
